What was measured:
IL-6 (Interleukin-6) = test: IL-6 production by ELISA in UVB-irradiated HaCaT keratinocytes; assay type: cell-based; settings: for reduced IL-6 levels: 10 µM (highest concentration tested), 4 h pretreatment, UVB 50 mJ/cm^2, 24 h incubation
Description: For the evaluation of anti-inflammatory activity (Figure 2), HaCaT keratinocytes were pretreated for 4 h with the compounds morin (A), morin oxime obtained in Example 1 (B) and morin semicarbazone obtained in Example 1 (C) (2.5, 5 and 10 µM). They were then irradiated with UVB radiation at 50 mJ/cm^2, incubated for 24 h and IL-6 (Interleukin-6) production was assessed by ELISA. Results were expressed as pg/mL and bars represent ± SEM (n=5). […] Thus, it is worth noting that at the highest concentration tested (10 µM), morin oxime reduced IL-6 levels by 45% (Figure 2B) and morin semicarbazone by 28% (Figure 2C), compared to morin, with which a decrease of only 16% was observed (Figure 2A).
Finally, the combination of morin or the morin semicarbazone derivative from Example 1 with fucoxanthin induced a decrease in IL-6 production at all concentrations tested in a 1:1 proportion. It is worth mentioning that this reduction was more notable with the fucoxanthin+morin semicarbazone mixture at the 5-5 µM and 10-10 µM combinations (42% reduction) (Figure 6C) than with fucoxanthin+morin (38% reduction) (Figure 6B). […] The results were expressed as a percentage with respect to the irradiated control cells and the bars represented mean ± SEM (n = 4).

[1] = UV-vis absorption spectra (molar extinction coefficient); assay type: physicochemical; settings: UV-vis 200-500 nm; improvement relative to morin
Description: As experimental evidence of the improvement in the photoprotective capacity of compounds synthesized in Example 1, a comparison was made of the absorption capacity in the UV-vis range between morin and nitrogen derivatives (Schiff bases).
The tangible improvement with chemical modification for the compounds synthesized in Example 1 is evident by comparing the molar extinction coefficient (ε) values. […] In a further analysis, it can be seen that the εmax of morin oxime is 60% better than that of morin, and εmax of morin semicarbazone is 40% better than that of morin. […] Therefore, an improvement can be achieved in the optimization of active ingredients used in the preparation of compositions, the purpose of which is directed towards photoprotection and a photoabsorbent flavonoid is contemplated in said formulation.

ROS = test: Intracellular ROS (dichlorodihydrofluorescein-diacetate technique) in UVB-irradiated HaCaT cells; assay type: cell-based
Description: For the evaluation of the antioxidant activity of morin semicarbazone obtained in Example 1, HaCaT cells were pre-treated with morin and semicarbazone at the selected concentrations for 4 h and then irradiated with UVB radiation at 50 mJ/cm^2. After 45 min, ROS levels were measured using the dichlorodihydrofluorescein-diacetate technique. […] The results were expressed as a percentage with respect to the irradiated cell control and the bars represented mean ± SEM (n=4).
This decrease was slightly greater with the fucoxanthin+morin semicarbazone mixture at the 1.25-1.25 µM and 2.5-2.5 µM combinations (41% reduction) (Figure 5C) than with fucoxanthin+morin (33% and 37% reduction, respectively) (Figure 5B). […] The results were expressed as a percentage with respect to the irradiated control cells and the bars represented mean ± SEM (n = 4).

[2] = Solubility of the isolated crystals; assay type: physicochemical; settings: solvents in words
Description: For the preparation of morin oxime, 0.03 g of morin dissolved in 5 mL of MeOH were used, 0.0206 g of hydroxylamine hydrochloride and 0.0206 g of sodium acetate were added. The mixture was left under constant stirring and reflux for 2.5 hours. After this time, the crude product of the reaction was tempered and poured onto wet ice generating a precipitate, which was washed with dichloromethane and methanol obtaining a yellow solid in 60% yield. […] 6.45 dd (J = 8.5; 2.1 Hz). 6.39 d (J = 2.1 Hz). 6.34 d (J = 1.9 Hz). 6.16 d (J = 1.9 Hz). NMR of ^13C δ 102.9. 122.0. 122.0. 144.3. 149.1. 149.4. 152.8. 153.1. 154.7. 155.9. 84.5. 89.5. 95.5. 95.5. 99.5. UV (EtOH) λmax (log ε) 210 (4.6). 265 (4.2). 390 (4.4). The preparation of the compound can be carried out using the above-mentioned method with 0.1 g of morin, 0.07 g of hydroxylamine hydrochloride and 0.07 g of sodium acetate.
For the preparation of morin semicarbazone, 0.03 g of morin dissolved in 5 mL of MeOH was used, 0.0332 g of semicarbazide hydrochloride and 0.0332 g of sodium acetate were added. The mixture was left under constant stirring and reflux for 3 hours. After this time, the crude product of the reaction was tempered and poured onto wet ice generating a precipitate, which was recovered by filtration obtaining a coffee solid in 76% yield. […] 10.71 sa. 9.77 sa. 7.22 d (J= 8.4 Hz). 6.37 d (J= 2.4 Hz). 6.33 dd (J= 8.4; 2.4 Hz). 6.28 d (J= 1.9 Hz). […]

[3] = ABTS antioxidant capacity, Trolox curve as reference control; assay type: biochemical; settings: ABTS technique
Description: First, the antioxidant capacity of the compounds was determined directly using the ABTS technique (2,2-azino-bis-3-benzo-thiazoline-6-sulfonic acid) at different concentrations of the compounds (morin and the compounds of Example 1), using as a reference control a curve of increasing concentrations of Trolox. […] Table 1. Antioxidant capacity of compounds

[4] = fucoxanthin alone, highest concentration tested

Compound	εmax better than that of morin [1]	EC50 [3]	Trolox equivalency (EC50 sample/EC 50 Trolox) [3]	reduced IL-6 levels (IL-6 (Interleukin-6))	reduced ROS production (ROS; 10 µM, 4 h pretreatment, UVB 50 mJ/cm^2, 45 min, vs irradiated cell control)	solubility [2]	ROS levels (result in words) (ROS; all concentrations tested, 4 h pretreatment, UVB 50 mJ/cm^2, 45 min)	IL-6 production reduction (IL-6 (Interleukin-6); [4])	ROS reduction (ROS; [4])
ON=c1c(O)c(-c2ccc(O)cc2O)oc2cc(O)cc(O)c12 [Morin oxime, 2-(2,4-dihydroxyphenyl)-3,5,7-trihydroxy-4H-chromen-4-one oxime]	60%	13.7 ± 0.768 µM	0.658	45%	–	soluble in AcOEt, acetone, MeOH, and partially soluble in water	–	–	–
fucoxanthin [reference compound]	–	–	–	–	–	–	–	30%	34%

Further lines, with some results ahead:

εmax better than that of morin [1]	EC50 [3]	Trolox equivalency (EC50 sample/EC 50 Trolox) [3]	Compound	reduced IL-6 levels (IL-6 (Interleukin-6))	reduced ROS production (ROS; 10 µM, 4 h pretreatment, UVB 50 mJ/cm^2, 45 min, vs irradiated cell control)	solubility [2]	ROS levels (result in words) (ROS; all concentrations tested, 4 h pretreatment, UVB 50 mJ/cm^2, 45 min)	IL-6 production reduction (IL-6 (Interleukin-6); [4])	ROS reduction (ROS; [4])
40%	12.3 ± 0.922 µM	0.590	NC(=O)NN=c1c(O)c(-c2ccc(O)cc2O)oc2cc(O)cc(O)c12 [Morin semicarbazone, 2-(2-(2,4-dihydroxyphenyl)-3,5,7-trihydroxy-4H-chromen-4-ylidene)hydrazine-1-carboxamide]	28%	up to 20%	solubility in AcOEt, acetone, MeOH	–	–	–
–	20.8 ± 0.811 µM	1	Cc1c(C)c2c(c(C)c1O)CCC(C)(C(=O)O)O2 (stereo not shown) [Trolox, reference compound]	–	–	–	–	–	–
–	10.8 ± 2.21 µM	0.517	O=c1c(O)c(-c2ccc(O)cc2O)oc2cc(O)cc(O)c12 [Morin, 2-(2,4-dihydroxyphenyl)-3,5,7-trihydroxy-4H-chromen-4-one]	16%	–	–	failed to reduce ROS levels at any of the concentrations tested	–	–
